Assay results as given in patent publication US8772244B2, “Tubulin inhibitors” (R&D Biopharmaceuticals GmbH, priority 2009, dated 2014).
pIC50: −log10 of the molar value.

Legend:
Format in all cases: cell-based
MCF-7 MX100 = assay: BrdU-Assay, IC-50 against cancer cell line MCF-7 MX100; settings: MCF7/MX100; MCF-7 MX100, BrdU-Assay
Description: (§1) Determination of the IC-50 Concentration Against Various Cancer Cell Lines
(§2) The activity of some representative example compounds of the present invention has been determined with the BrdU-Assay as described in: Porstmann T., Ternynck T., Avrameas S. (1985) “Quantification of 5-bromo-2-deoxyuridine incorporation into DNA: an enzyme immunoassay for the assessment of the lymphoid cell proliferative response.” J. Immunol. Methods 82: 169-179.

MCF-7 TX200 = assay: BrdU-Assay, IC-50 against cancer cell line MCF-7 TX200; settings: Homo sapiens; MCF-7 TX200, BrdU-Assay
Description: as §1, §2

HCT-116 = assay: BrdU-Assay, IC-50 against cancer cell line HCT-116; settings: Homo sapiens; HCT-116, BrdU-Assay
Description: as §1, §2

MCF-7 = assay: BrdU-Assay, IC-50 against cancer cell line MCF-7; settings: Homo sapiens, MCF7; MCF-7, BrdU-Assay
Description: as §1, §2

Skov-3 = assay: BrdU-Assay, IC-50 against cancer cell line Skov-3; settings: Homo sapiens, SK-OV-3; Skov-3, BrdU-Assay
Description: as §1, §2

MCF-7 VP = assay: BrdU-Assay, IC-50 against cancer cell line MCF-7 VP; settings: Homo sapiens, MCF7-VP
Description: as §1, §2

Row | SMILES | pIC50 (MCF-7 MX100) | pIC50 (MCF-7 TX200) | pIC50 (HCT-116) | pIC50 (MCF-7) | pIC50 (Skov-3) | pIC50 (MCF-7 VP)
1 | CCCN(C(=O)C(NC(=O)C1CCCCN1C)[C@@H](C)CC)[C@H](C[C@@H](OC(C)=O)c1nc(C(=O)N[C@@H](Cc2ccccc2)C[C@H](C)CO)cs1)C(C)C (stereo partly drawn) [MSRD334] | 9.21 | 7.81 | 8.97 | 9.24 | 8.98 | 9.06
2 | CC[C@H](C)C(NC(=O)C1CCCCN1C)C(=O)N(C)[C@H](C[C@@H](OC(C)=O)c1nc(C(=O)N[C@@H](Cc2ccccc2)C[C@H](C)CO)cs1)C(C)C (stereo partly drawn) [MSRD345] | 9.55 | 7.30 | 8.87 | 9.40 | 8.93 | 8.92
3 | CCCN(C(=O)C(NC(=O)C1CCCCN1C)[C@@H](C)CC)[C@H](C[C@@H](OCOC)c1nc(C(=O)N[C@@H](Cc2ccccc2)C[C@H](C)CO)cs1)C(C)C (stereo partly drawn) [MSRD368] | 8.40 | 6.49 | 7.39 | 8.41 | 7.52 | 8.20
4 | CCCN(C(=O)C(NC(=O)C1CCCCN1C)[C@@H](C)CC)[C@H](C[C@@H](OC(C)=O)c1nc(C(=O)N[C@H](CO)Cc2ccccc2)cs1)C(C)C (stereo partly drawn) [MSRD390] | 9.70 | 7.61 | 8.96 | 9.57 | 8.97 | 9.27
5 | CC[C@H](C)C(NC(=O)C1CCCCN1C)C(=O)N[C@H](C[C@@H](OC(C)=O)c1nc(C(=O)N[C@@H](Cc2ccccc2)C[C@H](C)CO)cs1)C(C)C (stereo partly drawn) [SDRD28] | 8.85 | 6.43 | 8.37 | 9.26 | 8.47 | 8.52
